# “And” between values parts separate entries of the source, which are not always exact repeats. Equal values may be shown once.
# System: sperm
# Experiment: Semen analysis: sperm number and seminal fluid parameters (CASA) after adolescent chemotherapy
# Format: in vivo, human
# Settings: individual adult male osteosarcoma survivors, semen collected approximately ten years after chemotherapy at 14-20 years of age
# Excerpt: The patients were 19-30 year-old male survivors of osteosarcoma recruited from the Seattle Children's Hospital in Seattle Wash. and four collaborating institutions (Children's Hospital of Pennsylvania, Philadelphia, Pa.; Miller Children's, Long Beach, Calif.; Children's Hospital, University of Minnesota, Minneapolis, Minn.; and Children's Hospital, Vanderbilt University, Nashville, Tenn.). These men had been treated for their disease with cisplatin-based chemotherapy regimens, including ifosfamide in some cases, when they were 14-20 years of age. Each patient was recruited by in-clinic or mail recruitment protocols. […]
# Each patient and control was asked to provide a semen sample via home seminal fluid collection, which we used to allow for ease of subject participation since the sample can be obtained without the individual traveling to a laboratory. […] For sperm concentration (per ml), each participant's semen was diluted and assessed by CASA (Computer Assisted Sperm Analysis). […] Although sperm motility was not assessed (because it requires a fresh sample), count and morphology data nonetheless provide a great deal of information regarding spermatogenesis and abnormalities and both are associated with an increased risk of infertility. […]
smiles,measurement,value
"N.N.[Cl][Pt][Cl] [Cisplatin, cisplatin]",Sperm # (Total Millions),100.2 Total Millions and 170.5 Total Millions and 178 Total Millions and 7.34 Total Millions and 21 Total Millions and 49 Total Millions and 55 Total Millions

# From patent publication US20190169691A1, “HERITABLE EPIGENETIC MODIFICATIONS AS MARKERS OF CHEMOTHERAPY EXPOSURE” (Washington State University, priority 2016, published 2019)
